Data reported in patent publication US10308605B2, “Proton pump inhibitors” (Takeda Pharmaceutical Company Limited, priority 2004, dated 2019).
pIC50: −log10 of the molar value. Structures can show the parent of a compound that is named as a salt.

What follows are compounds tested against proton, potassium-adenosine triphosphatase (H^+,K^+-ATPase) (Sus scrofa (Pig), UniProt P19156) (assay: Proton potassium-adenosine triphosphatase (H+,K+-ATPase) inhibitory activity test). Details: swine gastric mucous membrane microsomal fraction, pH 6.5, 37° C.; read-out: H^+/K^+-ATPase inhibitory activity (IC50).
Chain of proton, potassium-adenosine triphosphatase (H^+,K^+-ATPase) (P19156 2-1034): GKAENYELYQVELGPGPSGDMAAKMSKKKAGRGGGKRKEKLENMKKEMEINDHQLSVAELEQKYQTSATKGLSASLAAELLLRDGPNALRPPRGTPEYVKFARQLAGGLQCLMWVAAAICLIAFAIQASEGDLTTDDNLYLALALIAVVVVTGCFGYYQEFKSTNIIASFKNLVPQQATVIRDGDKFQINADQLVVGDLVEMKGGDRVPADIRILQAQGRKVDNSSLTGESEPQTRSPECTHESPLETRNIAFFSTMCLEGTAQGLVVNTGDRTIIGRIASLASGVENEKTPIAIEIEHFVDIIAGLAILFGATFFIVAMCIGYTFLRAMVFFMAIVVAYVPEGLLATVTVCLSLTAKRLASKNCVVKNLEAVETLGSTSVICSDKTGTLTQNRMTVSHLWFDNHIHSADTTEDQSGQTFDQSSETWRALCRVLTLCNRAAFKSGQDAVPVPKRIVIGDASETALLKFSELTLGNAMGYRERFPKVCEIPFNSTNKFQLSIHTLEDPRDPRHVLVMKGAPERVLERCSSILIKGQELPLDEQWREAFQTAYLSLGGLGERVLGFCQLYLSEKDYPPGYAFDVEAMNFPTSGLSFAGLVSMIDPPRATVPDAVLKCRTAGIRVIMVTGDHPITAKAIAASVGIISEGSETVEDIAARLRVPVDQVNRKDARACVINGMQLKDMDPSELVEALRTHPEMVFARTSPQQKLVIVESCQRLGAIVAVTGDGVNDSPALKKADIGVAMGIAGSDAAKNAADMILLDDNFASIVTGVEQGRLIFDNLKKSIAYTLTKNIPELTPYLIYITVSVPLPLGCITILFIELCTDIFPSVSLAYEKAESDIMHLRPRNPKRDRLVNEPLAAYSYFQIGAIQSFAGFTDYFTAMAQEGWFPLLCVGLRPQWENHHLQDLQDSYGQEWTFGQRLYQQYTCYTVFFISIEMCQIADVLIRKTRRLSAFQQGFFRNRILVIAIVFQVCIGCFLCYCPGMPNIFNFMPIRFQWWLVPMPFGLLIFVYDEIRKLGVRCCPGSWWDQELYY
Chain of proton, potassium-adenosine triphosphatase (H^+,K^+-ATPase) (P18434 whole entry partner): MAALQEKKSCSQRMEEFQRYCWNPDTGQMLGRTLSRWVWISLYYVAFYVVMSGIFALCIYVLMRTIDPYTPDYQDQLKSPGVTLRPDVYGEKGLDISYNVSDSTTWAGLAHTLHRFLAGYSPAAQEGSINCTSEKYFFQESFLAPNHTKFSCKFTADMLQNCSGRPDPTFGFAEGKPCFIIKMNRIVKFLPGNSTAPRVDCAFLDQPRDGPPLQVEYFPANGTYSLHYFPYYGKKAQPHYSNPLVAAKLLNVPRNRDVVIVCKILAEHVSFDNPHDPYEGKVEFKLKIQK
Type: biochemical
Procedure: Proton Potassium-adenosine Triphosphatase (H^+,K^+-ATPase) Inhibitory Activity Test
According to the method [Biochem. Biophys. Acta., 728, 31 (1983)] of Wallmark et al., a gastric mucous membrane microsomal fraction was prepared from the stomach of swine. First, the stomach was removed, washed with tap water, immersed in 3 mol/L brine, and the surface of the mucous membrane was wiped with a paper towel. The gastric mucous membrane was detached, chopped, and homogenized in a 0.25 mol/L saccharose solution (pH 6.8) containing 1 mmol/L EDTA and 10 mmol/L tris-hydrochloric acid using polytron (Kinematica). The obtained homogenate was centrifuged at 20,000×g for 30 min and the supernatant was centrifuged at 100,000×g for 90 min. The precipitate was suspended in 0.25 mol/L saccharose solution, superimposed on a 0.25 mol/L saccharose solution containing 7.5% Ficoll, and centrifuged at 100,000×g for 5 hr. The fraction containing the interface between the both layers was recovered, and centrifugally washed with 0.25 mol/L saccharose solution.
The obtained microsomal fraction was used as a proton, potassium-adenosine triphosphatase standard product.
To 40 μL of a 50 mmol/L HEPES-tris buffer (5 mmol/L magnesium chloride, 10 mmol/L potassium chloride, 10 μmol/L valinomycin, pH=6.5) containing 2.5 μg/mL (based on the protein concentration) of the enzyme standard product was added a test compound (5 μL) dissolved in a 10% aqueous dimethyl sulfoxide solution, and the mixture was incubated at 37° C. for 30 min. The enzyme reaction was started by adding 5 μL of a 2 mmol/L adenosine triphosphate tris salt solution (50 mmol/L HEPES-tris buffer (5 mmol/L magnesium chloride, pH 6.5)). The enzyme reaction was carried out at 37° C. for 20 min, and 15 μL of a malachite green solution (0.12% malachite green solution in sulfuric acid (2.5 mol/L), 7.5% ammonium molybdate and 11% Tween 20 were mixed at a ratio of 100:25:2) was added to quench the reaction. After allowing to stand at room temperature for 15 min, the resulting reaction product of inorganic phosphorus with malachite green was colorimetrically determined at a wavelength of 610 nm. In addition, the amount of the inorganic phosphoric acid in the reaction solution free of potassium chloride was measured in the same manner, which was subtracted from the inorganic phosphoric acid amount in the presence of potassium chloride to determine the proton, potassium-adenosine triphosphatase activity. The inhibitory rate (%) was determined from the activity value of the control and the activity values of various concentrations of the test compound, and the 50% inhibitory concentration (IC50) of the proton, potassium-adenosine triphosphatase was determined.
CNCc1cc(-c2ccsc2)n(S(=O)(=O)c2ccccc2)c1 [Example 30, N-methyl-1-[1-(phenylsulfonyl)-5-(3-thienyl)-1H-pyrrol-3-yl]methanamine hydrochloride] was tested, and the pIC50 was 8.38. CNCc1cc(-c2ccccc2)n(S(=O)(=O)c2ccsc2)c1 [Example 43, N-Methyl-1-[5-phenyl-1-(3-thienylsulfonyl)-1H-pyrrol-3-yl]methanamine hydrochloride] gave a pIC50 of 7.29. With CNCc1cc(-c2ccccc2)n(S(=O)(=O)c2cccc(S(C)(=O)=O)c2)c1 [Example 140, N-Methyl-1-(1-{[3-(methylsulfonyl)phenyl]sulfonyl}-5-phenyl-1H-pyrrol-3-yl)methanamine hydrochloride] the pIC50 was 7.11. In the case of CNCc1cc(-c2ccccc2)n(S(=O)(=O)c2cc3ccccc3s2)c1 [Example 152, 1-[1-(1-Benzothien-2-ylsulfonyl)-5-phenyl-1H-pyrrol-3-yl]-N-methylmethanamine hydrochloride], the pIC50 was 7.48. With CNCc1cc(-c2ccccc2F)n(S(=O)(=O)c2cccc(S(C)(=O)=O)c2)c1 [Example 161, 1-[5-(2-Fluorophenyl)-1-{[3-(methylsulfonyl)phenyl]sulfonyl}-1H-pyrrol-3-yl]-N-methylmethanamine hydrochloride] the pIC50 was 7.21. Work on CNCc1cc(-c2ccccc2F)n(S(=O)(=O)c2ccccc2F)c1 [Example 165, 1-{5-(2-Fluorophenyl)-1-[(2-fluorophenyl)sulfonyl]-1H-pyrrol-3-yl}-N-methylmethanamine hydrochloride] yielded a pIC50 of 8.05. CNCc1cc(-c2ccccc2)n(S(=O)(=O)c2cccc(C(=O)NC)c2)c1 [Example 204, N-Methyl-3-({4-[(methylamino)methyl]-2-phenyl-1H-pyrrol-1-yl}sulfonyl)benzamide hydrochloride] was tested, and the pIC50 was 7.07. In the case of CNCc1cc(-c2ccccc2C)n(S(=O)(=O)c2cccnc2)c1 [Example 220, N-Methyl-1-[5-(2-methylphenyl)-1-(pyridin-3-ylsulfonyl)-1H-pyrrol-3-yl]methanamine dihydrochloride], the pIC50 was 7.44.

Same assay, conditions: swine gastric mucous membrane microsomal fraction, pH 6.5, 37° C.; read-out: IC50
CNCc1cc(-c2cccc(C)c2)n(S(=O)(=O)c2ccc(C)cc2)c1 [Example 7, N-Methyl-1-{5-(3-methylphenyl)-1-[(4-methylphenyl)sulfonyl]-1H-pyrrol-3-yl}methanamine hydrochloride] showed a pIC50 of 7.04. For CNCc1cc(-c2ccccc2)n(S(=O)(=O)c2ccc(F)cc2C)c1 [Example 11, 1-{1-[(4-Fluoro-2-methylphenyl)sulfonyl]-5-phenyl-1H-pyrrol-3-yl}-N-methylmethanamine hydrochloride], the pIC50 was 7.29. CN(C)Cc1cc(-c2ccccc2)n(S(=O)(=O)c2ccc(C(F)(F)F)cc2)c1 [Example 12, N,N-Dimethyl-1-(5-phenyl-1-{[4-(trifluoromethyl)phenyl]sulfonyl}-1H-pyrrol-3-yl)methanamine hydrochloride] gave a pIC50 of 6.15.
